The values below come from US9695155B2, “Herbicidal substituted pyrimidinyloxy benzene compounds” (E. I. DU PONT DE NEMOURS AND COMPANY, priority 2013, dated 2017).

The test system of test [1] is ragweed. Nature of the test: Test E postemergence. Format: in vivo, Ambrosia elatior. An excerpt:
Seeds of plant species selected from corn (Zea mays), soybean (Glycine max), velvetleaf (Abutilon theophrasti), lambsquarters (Chenopodium album), wild poinsettia (Euphorbia heterophylla), palmer pigweed (Amaranthus palmeri), waterhemp (common waterhemp, Amaranthus rudis), surinam grass (Brachiaria decumbens), large (Lg) crabgrass (Digitaria sanguinalis), Brazilian crabgrass (Digitaria horizontalis), fall panicum (Panicum dichotomiflorum), giant foxtail (Setaria faberii), green foxtail (Setaria viridis), goosegrass (Eleusine indica), johnsongrass (Sorghum halepense), ragweed (common ragweed, Ambrosia elatior), barnyardgrass (Echinochloa crus-galli), sandbur (southern sandbur, Cenchrus echinatus), arrowleaf sida (Sida rhombifolia), Italian ryegrass (Lolium multiflorum), dayflower (Virginia (VA) dayflower, Commelina virginica), field bindweed (Convolvulus arvensis), morningglory (Ipomoea coccinea), nightshade (eastern black nightshade, Solanum ptycanthum), kochia (Kochia scoparia), yellow nutsedge (Cyperus esculentus), cocklebur (common cocklebur, Xanthium strumarium), smartweed (ladysthumb smartweed, and hairy beggarticks (Bidens pilosa), were planted into a silt loam soil and treated preemergence with test chemicals formulated in a non-phytotoxic solvent mixture which included a surfactant.
At the same time, plants from these crop and weed species and also horseweed (Canada horseweed, Conyza canadensis), waterhemp_RES1, (ALS & Triazine resistant common waterhemp, Amaranthus rudis), and waterhemp_RES2, (ALS & HPPD resistant common waterhemp, Amaranthus rudis) were planted in pots containing Redi-Earth® planting medium (Scotts Company, 14111 Scottslawn Road, Marysville, Ohio 43041) comprising spaghnum peat moss, vermiculite, wetting agent and starter nutrients were treated with postemergence applications of test chemicals formulated in the same manner. Plants ranged in height from 2 to 18 cm for postemergence treatments (1- to 4-leaf stage). Treated plants and controls were maintained in a greenhouse for 14 to 21 days, after which time all species were compared to controls and visually evaluated. Plant response ratings, summarized in Table E, are based on a scale of 0 to 100 where 0 is no effect and 100 is complete control. A dash (-) response means no test result.

The subject of test [2] is ragweed. Kind of test: Test F preemergence. Format: in vivo, Ambrosia elatior. Conditions: 21 days, scale 0 to 100. An excerpt: (§1) Seeds of plant species selected from bermudagrass (Cynodon dactylon), surinam grass (Brachiaria decumbens), large (Lg) crabgrass (Digitaria sanguinalis), crabgrass, naked (naked crabgrass, Digitaria nuda), foxtail, green (green foxtail, Setaria viridis), johnsongrass (Sorghum halepense), kochia (Kochia scoparia), morningglory (pitted morningglory, Ipomoea lacunosa), nutsedge, purple (purple nutsedge, Cyperus rotundus), ragweed (common ragweed, Ambrosia elatior), mustard, black (black mustard, Brassica nigra), guineagrass (Panicum maximum), dallisgrass (Paspalum dilatatum), barnyardgrass (Echinochloa crus-galli), sandbur (southern sandbur, Cenchrus echinatus), sowthistle (common sowthistle, Sonchus oleraceous), Italian ryegrass (Lolium multiflorum), signalgrass (broadleaf signalgrass, Brachiaria platyphylla), dayflower (Virginia (VA) dayflower, Commelina virginica), bluegrass (annual bluegrass, Poa annua), quackgrass (Elytrigia repens), mallow (common mallow, Malva sylvestris), buckwheat, wild (wild buckwheat, Polygonum convolvulus), leafy spurge (Euphorbia esula), chickweed (common chickweed, Stellaria media), wild poinsettia (Euphorbia heterophylla), and pigweed (Amaranthus retroflexus) were planted into a blend of loam soil and sand and treated preemergence with test chemicals formulated in a non-phytotoxic solvent mixture which included a surfactant.
(§2) Treated plants and controls were maintained in a greenhouse for 21 days, after which time all species were compared to controls and visually evaluated. Plant response ratings, summarized in Table F, are based on a scale of 0 to 100 where 0 is no effect and 100 is complete control. A dash (-) response means no test result.

The next test has as its system dayflower. Kind of test: Test F preemergence. Format: in vivo, Commelina virginica. Particulars: 21 days, scale 0 to 100.
Source text: as §1, §2

The test system of the next test is spring barley. Nature of the test: Test D preemergence. Particulars: for plant injury at 16 g/ha / plant injury at 31 g/ha / plant injury at 62 g/ha / plant injury at 125 g/ha: Hordeum vulgare, pre-emergence; for plant injury at 16 g/ha: read-out: Plant response rating, Barley, Spring; for plant injury at 31 g/ha / plant injury at 62 g/ha / plant injury at 125 g/ha: scale 0-100, read-out: Plant response rating, Barley, Spring. Format: in vivo, Hordeum vulgare. The source says: (§3) Seeds of plant species selected from bluegrass (annual bluegrass, Poa annua), blackgrass (Alopecurus myosuroides), canarygrass (littleseed canarygrass, Phalaris minor), chickweed (common chickweed, Stellaria media), galium (catchweed bedstraw, Galium aparine), bromegrass, downy (downy bromegrass, Bromus tectorum), field poppy (Papaver rhoeas), field violet (Viola arvensis), green foxtail (Setaria viridis), deadnettle (henbit deadnettle, Lamium amplexicaule), Italian ryegrass (Lolium multiflorum), kochia (Kochia scoparia), lambsquarters (Chenopodium album), oilseed rape (Brassica napus), pigweed (Amaranthus retroflexus), chamomile (scentless chamomile, Matricaria inodora), Russian thistle (Salsola kali), speedwell (bird's-eye speedwell, Veronica persica), spring barley (Hordeum vulgare), spring wheat (Triticum aestivum), wild buckwheat (Polygonum convolvulus), wild mustard (Sinapis arvensis), wild oat (Avena fatua), wild radish (Raphanus raphanistrum), windgrass (Apera spica-venti), winter barley (Hordeum vulgare), and winter wheat (Triticum aestivum) were planted into a silt loam soil and treated preemergence with test chemicals formulated in a non-phytotoxic solvent mixture which included a surfactant.
(§4) At the same time, these species were planted in pots containing Redi-Earth® planting medium (Scotts Company, 14111 Scottslawn Road, Marysville, Ohio 43041) comprising spaghnum peat moss, vermiculite, wetting agent and starter nutrients and treated with postemergence applications of the test chemicals formulated in the same manner. Plants ranged in height from 2 to 18 cm (1- to 4-leaf stage). Treated plants and controls were maintained in a controlled growth environment for 7 to 21 days after which time all species were compared to controls and visually evaluated. Plant response ratings, summarized in Table D, are based on a scale of 0 to 100 where 0 is no effect and 100 is complete control. A dash (-) response means no test result.

Another test relates to winter barley. Nature of the test: Test D preemergence. Format: in vivo, Hordeum vulgare. Conditions: for plant injury at 16 g/ha / plant injury at 31 g/ha / plant injury at 62 g/ha / plant injury at 125 g/ha: Hordeum vulgare, pre-emergence; for plant injury at 16 g/ha: read-out: Plant response rating, Barley, Winter; for plant injury at 31 g/ha / plant injury at 62 g/ha / plant injury at 125 g/ha: scale 0-100, read-out: Plant response rating, Barley, Winter.
Source text: as §3, §4

Another test relates to signalgrass. Nature of the test: Test F preemergence. Format: in vivo, Brachiaria platyphylla. Conditions: 21 days, scale 0 to 100.
Source text: as §1, §2

In the next test the test system is chickweed. Nature of the test: Test F preemergence. Format: in vivo, Stellaria media. Conditions: 21 days, scale 0 to 100.
Source text: as §1, §2

The next test deals with sowthistle. Kind of test: Test F preemergence. Particulars: 21 days, scale 0 to 100. Format: in vivo, Sonchus oleraceous.
Source text: as §1, §2

Setting [3] is: 16 g ai/ha, scale 0 (no effect) to 100 (complete control).

With `Clc1cnc(Oc2cccc(Cl)c2-n2cc(I)cn2)nc1` [Compound 181], the “Plant response rating, Ragweed” value in the test on ragweed [1] (Postemergence, 31 g ai/ha, scale 0 to 100) was 25; in the test with ragweed [1] (Postemergence, 62 g ai/ha, scale 0 to 100) it was 30; with ragweed [1] (Postemergence, 125 g ai/ha, scale 0 to 100) it was 50; in the test on ragweed [1] (postemergence, 16 g ai/ha, scale 0 to 100, 0 no effect, 100 complete control), 20.

In the case of `N#Cc1cccc(Oc2ncc(Cl)cn2)c1-n1cc(OCC(F)(F)F)cn1` [Compound 274, 3-[(5-chloro-2-pyrimidinyl)oxy]-2-[4-(2,2,2-trifluoroethoxy)-1H-pyrazol-1-yl]benzonitrile], the “Plant response rating, Ragweed” value in the test with ragweed [2] (16 g ai/ha) is listed as 30; with ragweed [2] (31 g ai/ha), 30; with ragweed [2] (62 g ai/ha) it was 30; in the test on ragweed [2] (125 g ai/ha), 70; with ragweed [2] (250 g ai/ha), 100. Besides, the “Plant response rating, Dayflower, VA” value with dayflower (16 g ai/ha) is given as 90; in the test on dayflower (31 g ai/ha) it was 95; in the test with dayflower (62 g ai/ha) it was 98; with dayflower (125 g ai/ha) it was 100; in the test on dayflower (250 g ai/ha), 100. The plant injury at 16 g/ha in the test with spring barley (setting [3]) and in the test with winter barley (setting [3]) was 0% each time. In addition, the plant injury at 31 g/ha in the test on spring barley (31 g ai/ha) and in the test on winter barley (31 g ai/ha) was 0% in each case. The plant injury at 62 g/ha in the test with spring barley (62 g ai/ha) and in the test on winter barley (62 g ai/ha) was 10% in each case. The plant injury at 125 g/ha in the test with spring barley (125 g ai/ha) was 15%; in the test with winter barley (125 g ai/ha) it was 55%. Besides, the “Plant response rating, Signalgrass” value in the test on signalgrass (16 g ai/ha) turned out to be 75; in the test on signalgrass (31 g ai/ha) it was 70; in the test with signalgrass (62 g ai/ha) it was 100; with signalgrass (125 g ai/ha), 100; with signalgrass (250 g ai/ha), 100. In addition, the “Plant response rating, Chickweed” value in the test with chickweed (16 g ai/ha) is on record as 98; in the test on chickweed (31 g ai/ha) it was 98; with chickweed (62 g ai/ha), 100; in the test with chickweed (125 g ai/ha), 100; with chickweed (250 g ai/ha), 100. Further, the “Plant response rating, Sowthistle” value in the test on sowthistle (16 g ai/ha), in the test on sowthistle (31 g ai/ha), in the test on sowthistle (62 g ai/ha), in the test on sowthistle (125 g ai/ha) and in the test on sowthistle (250 g ai/ha) was 100 each time.

`Fc1cccc(Oc2ncc(Cl)cn2)c1-n1cc(C(F)F)nn1` [Compound 141, 5-chloro-2-[2-[4-(difluoromethyl)-1H-1,2,3-triazol-1-yl]-3-fluorophenoxy]pyrimidine]: the plant injury at 16 g/ha in the test on spring barley (setting [3]) and with winter barley (setting [3]) was 15% each time. The plant injury at 31 g/ha with spring barley (31 g ai/ha) was 20%; in the test with winter barley (31 g ai/ha), 35%. Also, the plant injury at 62 g/ha in the test with spring barley (62 g ai/ha) and with winter barley (62 g ai/ha) was 65% each time. The plant injury at 125 g/ha with spring barley (125 g ai/ha) and with winter barley (125 g ai/ha) was 90% in each case.

For the compound `FCc1cccc(Oc2ncc(Cl)cn2)c1-n1cc(I)cn1` [Compound 245], the “Plant response rating, Barley, Spring” value was found to be 0 with spring barley (setting [3]); 5 in the test on spring barley (31 g ai/ha, scale 0-100); 15 with spring barley (62 g ai/ha, scale 0-100); 35 in the test on spring barley (125 g ai/ha, scale 0-100). Also, the “Plant response rating, Barley, Winter” value in the test on winter barley (setting [3]) was found to be 0; with winter barley (31 g ai/ha, scale 0-100), 35; in the test with winter barley (62 g ai/ha, scale 0-100), 25; in the test with winter barley (125 g ai/ha, scale 0-100) it was 40.

Take `N#Cc1cccc(Oc2ncc(Cl)cn2)c1-n1cc(OC(F)F)cn1` [Compound 97]: the “Plant response rating, Ragweed” value in the test with ragweed [2] (16 g ai/ha) came to 10; with ragweed [2] (31 g ai/ha) it was 75; in the test on ragweed [2] (62 g ai/ha), 85; with ragweed [2] (125 g ai/ha), 95; with ragweed [2] (250 g ai/ha), 100. Further, the “Plant response rating, Dayflower, VA” value in the test with dayflower (16 g ai/ha) is recorded as 35; in the test on dayflower (31 g ai/ha), 80; in the test on dayflower (62 g ai/ha), 98; in the test on dayflower (125 g ai/ha) it was 98; in the test with dayflower (250 g ai/ha), 100. The “Plant response rating, Signalgrass” value in the test with signalgrass (16 g ai/ha) worked out at 25; in the test with signalgrass (31 g ai/ha), 90; in the test on signalgrass (62 g ai/ha), 85; in the test on signalgrass (125 g ai/ha), 100; with signalgrass (250 g ai/ha), 100. Besides, the “Plant response rating, Chickweed” value with chickweed (16 g ai/ha), with chickweed (31 g ai/ha), in the test with chickweed (62 g ai/ha), in the test with chickweed (125 g ai/ha) and in the test on chickweed (250 g ai/ha) was 100 in each case. For the same compound, the “Plant response rating, Sowthistle” value in the test with sowthistle (16 g ai/ha), with sowthistle (31 g ai/ha), in the test on sowthistle (62 g ai/ha), in the test with sowthistle (125 g ai/ha) and in the test on sowthistle (250 g ai/ha) was 100 throughout.
